Assay results reported in patent US20090055945A1, “Method for Producing Nuclear-Transplanted Egg” (priority 2005, published 2009).

Assays:
[1] = test system: bovine reconstructed embryos; assay: Early embryonic development of bovine reconstructed embryos; format: cell-based; conditions: for Number of cleaved embryos / Cleavage rate (cleaved embryos to cultured embryos): 48 hours postactivation; for Number of embryos at the blastocyst stage: 168 hours postactivation
Description: Bovine ovaries collected from sacrificed cows at a local slaughterhouse were stored in physiological saline at 25° C. and transported to the laboratory within 6 to 8 hours after slaughter. Bovine oocytes were harvested by aspiration of follicular fluids from follicles with diameters of 2 to 5 mm on the surfaces of bovine ovaries using 21G injection needles (Terumo, Tokyo, Japan) and 10-ml syringes (Terumo). Only oocyte-cumulus cell complexes to which 2 to 4 layers of cumulus cells were attached were selected and collected from the harvested follicular fluids. The collected oocyte-cumulus cell complexes were introduced into drops of 50 μl maturation medium under mineral oil (Sigma, USA) and cultured for 21 hours at 39° C. under 5% CO2 and 95% air at saturation humidity. The maturation medium was prepared by adding 0.02 AU/ml of follicle-stimulating hormone (FSH, Antrin, Kawasaki Seiyaku, Kanagawa, Japan) and 1 μg/ml estradiol 17-β (Sigma) to 25 mM HEPES buffered TCM-199 (Earle's salts, Gibco, m-TCM199E) supplemented with 5% (v/v) new born calf serum (NBCS, Gibco, N.Y., USA) and 25 μg/ml of gentamicin solution (Sigma).
The oocyte-cumulus cell complexes matured for 21 hours were allowed to stand for 5 minutes in a solution containing 5% NBCS and 25 μg/ml gentamicin solution (Sigma) in 25 mM HEPES-buffered TCM-199 (Hank's salts, Gibco, m-TCM199H) containing 0.25% (w/v) hyaluronidase (Sigma). Then, the cumulus cells attached around the oocytes were fully removed by pipetting.
The oocytes from which the cumulus cells had been removed were transferred to m-TCM119H and only oocytes with the first polar bodies had been emitted were selected under an inverted microscope. Zonae pellucidae above each first polar bodies were incised using a fine glass needle for removing nuclei from the oocytes, and the oocytes were transferred to m-TCM119H supplemented with 5 μg/ml cytochalacin B (Sigma) and allowed to stand for 15 minutes. Each oocyte was held from the upside using the glass needle used for incising zona pellucida, and enucleation was carried out by removing the first polar body and the oocyte cytoplasm neighboring the first polar body corresponding to about 10 to 20% of the oocyte cytoplasm volume from the zona pellucida incision site. The removed oocyte cytoplasm was transferred to m-TCM199E containing 20 μg/ml of Hoechst 33342 (Sigma) and stained at 39° C. under 5% CO2 and 95% air at saturated humidity for 30 minutes, and the enucleation was confirmed by judging the presence of nucleus in the enucleated oocyte cytoplasm under UV irradiation.
Fibroblasts derived from an auricle of Japanese black cattle calves were used as donor cells for nuclear transfer. The donor cells were cultured to 80% confluency in Dulbecco's modified Eagle medium (DMEM, Nissui, Tokyo, Japan) supplemented with 10% (v/v) fetal bovine serum (FBS, Funakoshi, Tokyo, Japan). The culture medium was then exchanged for DMEM supplemented with 0.4% FBS, and the cells were cultured under serum-starvation conditions for 7 days. The cells cultured under serum-starvation conditions were isolated from the culture dishes using a 0.25% (w/v) solution of trypsin (Sigma) containing 0.04% (w/v) disodium dihydrogen ethylenediaminetetraacetic acid (EDTA, Nacalai Tesque, Kyoto, Japan). The cells were harvested by centrifugation in a centrifuge tube, and suspended in a phosphate buffered saline (PBS, Gibco) (−) solution containing 10% (w/v) polyvinylpyrrolidone (PVP, Nacalai Tesque). The isolated cells were aspirated into a micro-glass pipette for cell introduction, and introduced from the zona pellucida incision sites into the perivitelline spaces of the recipient enucleated oocytes. […]

[2] = test system: oocytes into which nuclei from fibroblasts were transferred; assay: Expanded blastocyst formation, fibroblasts as donor cells; format: cell-based, mouse; conditions: fibroblast donor nuclei; 50 nM TSA for 20 hours; FIG. 8
Description: (§1) A procedure similar to that described in Example 1 was carried out using fibroblasts or embryonic stem cells (ES cells) as donor cells in place of cumulus cells. Fibroblasts were obtained by culturing a fragment of mouse tail (Non-patent Document 11). E14 cells were used as ES cells (Non-patent Document 12).
(§2) Oocytes into which nuclei from the donor cells were transferred were treated with TSA for 20 hours, and cultured in KSOM medium without TSA until 96 hours after the initiation of activation. Then, development into expanded blastocysts was observed and the blastocyst formation rate was determined. 30 or more embryos were examined in each of the experimental groups of the respective cells.

[3] = test system: cloned embryos derived from cumulus cells; assay: Methylation of DNA and histone H3 Lys9 in cloned embryos; format: cell-based, mouse; conditions: 500 nM TSA for 15 hours; FIG. 9
Description: Cloned embryos derived from cumulus cells were produced using oocytes from B6D2F1 mice produced according to the method as described in Example 1, and cultured in the presence or absence of 500 nM TSA for 15 hours (including the activation period). Then, the nuclear transfer embryos were fixed, and methylation of DNA (DNA metC) and methylation of histone H3 Lys9 (H3K9 trimet) were examined using antibodies against the respective antigens. Furthermore, DNA was stained with DAPI. 15 cloned embryos were used for each group. The results are shown in FIG. 9 along with the merged images (Merge).

[4] = test system: oocytes into which nuclei from ES cells (E14) were transferred; assay: Expanded blastocyst formation, ES cells as donor cells; format: cell-based, mouse; conditions: ES cell donor nuclei; 50 nM TSA for 20 hours; FIG. 8
Description: as §1, §2

[5] = test system: nuclear transfer embryos; assay: Birth rate of cloned mice after implantation of treated nuclear transfer embryos; format: in vivo, mouse
Description: Based on the results of Example 3, the effect of the TSA treatment on the fetus birth rate was examined. […] after the initiation of activation and transferred to KSOM medium without TSA, and the nuclear transfer embryos transferred to KSOM medium without TSA were cultured in this medium until implantation. For producing cloned mice, embryos at the 2-cell stage were implanted into oviducts of pseudopregnant mice (surrogate mothers, day 0.5) on the day after the nuclear transfer. The pseudopregnancy treatment was carried out by mating a ICR female mouse (in estrus) with an ICR vasectomized male mouse on a one-to-one basis. The successful mating was confirmed based on the presence of plug formation. Cloned mice were delivered by cesarean section 19 days after the embryo transfer into oviduct. The ratio of the number of born cloned mouse fetuses to the number of implanted embryos (birth rate) was determined. Cloned mouse fetuses and placentas immediately after birth (left), and cloned mice (black) and a surrogate mother (white) after three weeks (right) are shown in FIG. 6.

[6] = TSA in the culture medium, 5-500 nM

`CC(/C=C/C(=O)NO)=C\[C@@H](C)C(=O)c1ccc(N(C)C)cc1` [TSA, trichostatin A] was tested, and the “Cell number ± SEM of blastocysts” value ([1]; TSA 5 nM for 48 hours) was 89 ± 6, the “Number of cleaved embryos” value ([1]; TSA 5 nM for 48 hours, 106 cultured embryos) was 85 and the “Cleavage rate (cleaved embryos to cultured embryos)” value ([1]; TSA 5 nM for 48 hours) was 80%. For the same molecule, the “Number of embryos at the blastocyst stage” value (shortened to “Number of embryos”) ([1]; TSA 5 nM for 48 hours) was 28, the “Cell number ± SEM of blastocysts” value ([1]; TSA 50 nM for 48 hours) was 83 ± 6 and the “Number of cleaved embryos” value ([1]; TSA 50 nM for 48 hours, 97 cultured embryos) was 73. For the same molecule, the “Cleavage rate (cleaved embryos to cultured embryos)” value ([1]; TSA 50 nM for 48 hours) was 75%, the “Number of embryos” value ([1]; TSA 50 nM for 48 hours) was 29 and the “Cell number ± SEM of blastocysts” value ([1]; TSA 500 nM for 48 hours) was 92 ± 8. For the same molecule, the “Number of cleaved embryos” value ([1]; TSA 500 nM for 48 hours, 97 cultured embryos) was 73, the “Cleavage rate (cleaved embryos to cultured embryos)” value ([1]; TSA 500 nM for 48 hours) was 75% and the “Number of embryos” value ([1]; TSA 500 nM for 48 hours) was 5. For the same molecule, the “increase in blastocyst development rate” value ([1]; TSA at a certain concentration for a certain period of time) was “about 2 fold”, the “influence on cell number of blastocysts” value [1, 6] was “did not influence” and the “influence on cleavage rate” value [1, 6] was “did not influence”. The “blastocyst development rate compared with the case without TSA” value [2] was “higher”, the “methylation of DNA and histone H3 Lys9 in other chromosomal portions” value [3] was “reduction in methylation of both was observed” and the “methylation of DNA and histone H3 Lys9 in the pericentromeric region” value [3] was “prominent reduction was not observed”. The “blastocyst development rate compared with the case without TSA” value [4] was “higher”, the “Birth rate (%)” value ([5]; TSA 5 nM, treatment time 10 h) was 6.2% and the “Number of born fetuses” value ([5]; TSA 5 nM, treatment time 10 h, 289 implanted embryos) was 18. For the same molecule, the “Birth rate (%)” value ([5]; TSA 5 nM, treatment time 20 h) was 3.2%, the “Number of born fetuses” value ([5]; TSA 5 nM, treatment time 20 h, 274 implanted embryos) was 9 and the “Birth rate (%)” value ([5]; TSA 50 nM, treatment time 10 h) was 7.7%. The “Number of born fetuses” value ([5]; TSA 50 nM, treatment time 10 h, 91 implanted embryos) was 7, the “Birth rate (%)” value ([5]; TSA 50 nM, treatment time 20 h) was 2.5% and the “Number of born fetuses” value ([5]; TSA 50 nM, treatment time 20 h, 81 implanted embryos) was 2. The “birth rate vs control” value ([5]; TSA treatment for 10 hours or 20 hours) was “increased”.
